# Results reported in patent US8912202B2, “N-(benzimimdazol-2-yl)-cyclopropane carboxamides as lysophosphatidic acid antagonists” (Merck Patent GmbH, priority 2011, dated 2014).
# Biological target: T1, LPA2R (Homo sapiens, UniProt Q9HBW0)
# T1 construct: expressed in transfected cells; host or cells: U2OS
# Assay: LPA2R-Calciumflux assay (FLIPR, intracellular calcium mobilisation after LPA)
# Type: cell-based
# Details: U2OS cells recombinant expressing LPA2R; antagonism of LPA-induced calcium flux; racemate of the two trans enantiomers unless marked enantiomer
# Text: The assay detects intra cellular calcium which is generated by cells upon activation of the LPA2 receptor by its ligand LPA. This transient calcium mobilization can be monitored using a commercial calcium detection kit (e.g. from Molecular Devices). The main component of such a kit is a dye, which becomes fluorescent when calcium is present—a transient fluorescence signal after addition of a ligand to a test well are the result. Readers like the FLIPR (Molecular Devices) can be used to monitor such transient “Ca-flux” signals.
# The signals are calculated according to peak maximum minus base line.
# Compounds which are antagonists of LPA lead to a decreased mobilisation of intracellular calcium and thus to a lower signal. The assay is performed in microplates (384 wells per plate).
# LPA2R-Calciumflux Assay Protocol
# The assay is run according to the following procedure:
# 50 uL seed cells (10000 cells/well in DMEM buffer)
# • Incubate 24 h at 37° C., 10% CO2 • aspirate medium 50 uL add calcium dye 1×HBSS/HEPES buffer • incubate 1 h at 37° C. (“loading”) • equilibrate 10 min at RT 5 uL add compounds in HEPES buffer • shake 10 sec. at 1000 rpm • incubate 15 min at RT 20 uL add LPA (in the FLIPR Tetra) in Krebs-buffer/BSA & measurement
# The cells are seeded in DMEM buffer (DMEM, 10% FCS, 10 mM HEPES, 1% Pen/Strep).
# Dye loading is done in HBSS/HEPES buffer (100 mL 10×HBSS+20 mL 1M HEPES+880 mL water, pH 7.4)
# The LPA is added in Krebs/BSA buffer (120 mM NaCl, 5 mM KCl, 0.62 mM MgSO4, 1.8 mM CaCl2, 10 mM HEPES, 6 mM D(+)-Glucose, 0.2% BSA, pH 7.4).
# The compounds are pre-diluted in HEPES buffer (20 mM, pH 7.4), whereby the final DMSO content in the assay is kept at 1%. The compounds are pre-diluted in order to generate dose response series on the microplates. The dose response series consist of 10 concentrations for each compound from 30 uM final to 1 nM final. From all compound wells the resulting signals are referred to control wells (located on each plate besides the compound wells) in terms of % activity.
# From these % activity values—along with the corresponding compound concentrations—IC50 values are fitted for each compound using standard fitting programs such as Graphpad Prism. Here the method “log(inhibitor) vs. response—Variable slope” is used.
# T1 sequence (Q9HBW0 whole entry): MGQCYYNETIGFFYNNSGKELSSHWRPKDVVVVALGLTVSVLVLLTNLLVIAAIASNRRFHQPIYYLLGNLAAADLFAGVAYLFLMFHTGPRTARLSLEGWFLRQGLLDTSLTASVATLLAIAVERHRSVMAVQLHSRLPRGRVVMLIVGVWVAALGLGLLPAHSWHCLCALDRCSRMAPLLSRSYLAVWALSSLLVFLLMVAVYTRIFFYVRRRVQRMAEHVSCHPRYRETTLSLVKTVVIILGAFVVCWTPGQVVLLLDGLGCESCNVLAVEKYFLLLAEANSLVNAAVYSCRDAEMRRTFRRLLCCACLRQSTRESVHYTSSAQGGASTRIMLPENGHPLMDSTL
row,IC50,Compound
1,10 to 100 nM,"O=C(Nc1nc2ccccc2[nH]1)C1CC1c1ccccc1Cl (single isomer, unassigned) [enantiomer-2-(2-Chloro-phenyl)-cyclopropane-carboxylic acid (1H-benzoimidazol-2-yl)-amide]"
2,1000 to 10000 nM,"O=C(Nc1nc2cc(Cl)cnc2[nH]1)[C@@H]1C[C@H]1c1ccccc1 (single isomer, unassigned) [trans-2-Phenyl-cyclopropane-carboxylic acid (6-chloro-3H-imidazo[4,5-b]pyridin-2-yl)-amide]"
3,1000 to 10000 nM,"O=C(Nc1nc2ccccc2[nH]1)C1CC1c1ccccc1 (single isomer, unassigned; enantiomer-2) [drawing 58, enantiomer-2-Phenyl-cyclopropane-carboxylic acid (1H-benzoimidazol-2-yl)-amide]"
4,< 10 nM,"O=C(Nc1nc2ccccc2[nH]1)C1CC1c1ccccc1 (single isomer, unassigned; enantiomer-2) [drawing 59, enantiomer-2-Phenyl-cyclopropane-carboxylic acid (1H-benzoimidazol-2-yl)-amide]"
5,10 to 100 nM,"N#Cc1ccc2nc(NC(=O)C3CC3c3ccccc3)[nH]c2c1 (single isomer, unassigned; enantiomer-2) [drawing 71, enantiomer-2-Phenyl-cyclopropane-carboxylic acid (6-cyano-1H-benzoimidazol-2-yl)-amide]"
6,1000 to 10000 nM,"N#Cc1ccc2nc(NC(=O)C3CC3c3ccccc3)[nH]c2c1 (single isomer, unassigned; enantiomer-2) [drawing 72, enantiomer-2-Phenyl-cyclopropane-carboxylic acid (6-cyano-1H-benzoimidazol-2-yl)-amide]"
7,10 to 100 nM,"O=C(Nc1nc2ccccc2[nH]1)C1CC1c1ccccc1Cl (single isomer, unassigned; enantiomer-2) [drawing 75, enantiomer-2-(2-Chloro-phenyl)-cyclopropane-carboxylic acid (1H-benzoimidazol-2-yl)-amide]"
8,> 10000 nM,"O=C(Nc1nc2ccccc2[nH]1)C1CC1c1ccccc1Cl (single isomer, unassigned; enantiomer-2) [drawing 76, enantiomer-2-(2-Chloro-phenyl)-cyclopropane-carboxylic acid (1H-benzoimidazol-2-yl)-amide]"
9,100 to 1000 nM,"O=C(Nc1nc2ccc(Cl)cc2[nH]1)C1CC1c1ccccc1Cl (single isomer, unassigned; enantiomer-2) [enantiomer-2-(2-Chloro-phenyl)-cyclopropane-carboxylic acid (6-chloro-1H-benzoimidazol-2-yl)-amide]"
10,10 to 100 nM,"O=C(Nc1nc2ccnc(Cl)c2[nH]1)C1CC1c1ccccc1 (single isomer, unassigned; enantiomer-2) [enantiomer-2-Phenyl-cyclopropane-carboxylic acid (4-chloro-3H-imidazo[4,5-c]pyridin-2-yl)-amide]"
11,< 10 nM,"O=C(Nc1nc2cc(Cl)cnc2[nH]1)C1CC1c1ccccc1 (single isomer, unassigned; enantiomer-2) [enantiomer-2-Phenyl-cyclopropane-carboxylic acid (6-chloro-3H-imidazo[4,5-b]pyridin-2-yl)-amide]"
12,100 to 1000 nM,"O=C(Nc1nc2c(OCCN3CCCC3)cccc2[nH]1)C1CC1c1ccccc1 (single isomer, unassigned; enantiomer-2) [enantiomer-2-Phenyl-cyclopropane-carboxylic acid [4-(2-pyrrolidin-1-yl-ethoxy)-1H-benzoimidazol-2-yl]-amide]"
13,1000 to 10000 nM,"O=C(Nc1nc2cc(OCCN3CCCC3)ccc2[nH]1)C1CC1c1ccccc1 (single isomer, unassigned; enantiomer-2) [enantiomer-2-Phenyl-cyclopropane-carboxylic acid [5-(2-pyrrolidin-1-yl-ethoxy)-1H-benzoimidazol-2-yl]-amide]"
14,> 10000 nM,"COC(=O)c1cccc2nc(NC(=O)C3CC3c3ccccc3Cl)[nH]c12 (single isomer, unassigned; enantiomer-2) [enantiomer-2-{[2-(2-Chloro-phenyl)-cyclopropane-carbonyl]-amino}-3H-benzoimidazole-4-carboxylic acid methyl ester]"
15,10 to 100 nM,"O=C(Nc1nc2cc(Br)cnc2[nH]1)[C@H]1C[C@@H]1c1ccccc1 [(1S,2S)-2-Phenyl-cyclopropanecarboxylic acid (6-bromo-3H-imidazo[4,5-b]pyridin-2-yl)-amide]"
